Test results taken from ChEMBL document CHEMBL1150964, “Munchiwarin, a prenylated chalcone from crotalaria trifoliastrum” (J Nat Prod, 1998).
In brackets after ≈: the same amount, converted by molar mass. Activity calls are given as the source filed them. The calls are words filed in the database; no cut-off is given here.

Columns and labels:
KB [1] = experiment: Cytotoxicity against human KB cells; format: functional, cell-based
KB [2] = experiment: Cytotoxicity against drug-resistant human KB cells in presence of vinblastine; format: functional, cell-based
KB [3] = experiment: Cytotoxicity against drug-resistant human KB cells in absence of vinblastine; format: functional, cell-based
Col2 = experiment: Cytotoxicity against human Col2 cells; format: functional, cell-based
[4] = Cytotoxicity against human BC1 cells; format: functional, cell-based
[5] = target: Human immunodeficiency virus type 1 reverse transcriptase (Human immunodeficiency virus 1) (UniProt Q72547); experiment: Inhibition of HIV1 reverse transcriptase

Compound `CC(C)=CCC1=C/C(=C(O)\C=C\c2ccc(O)cc2)C(=O)C(CC=C(C)C)(CC=C(C)C)C1=O` [MUNCHIWARIN] has an IC50 (KB [1]) of 11 µg/mL (≈ 23.9 µM), an IC50 (KB [2]) of 13 µg/mL and an IC50 (KB [3]) of 14 µg/mL (≈ 30.4 µM). The IC50 (Col2) was 9 µg/mL (≈ 19.5 µM), the IC50 [4] was 9 µg/mL (≈ 19.5 µM) and the Activity [5] was “inactive”.
